This experiment deals with T1, human M2 receptor (Homo sapiens, UniProt P08172).
T1 sequence (P08172 1-466): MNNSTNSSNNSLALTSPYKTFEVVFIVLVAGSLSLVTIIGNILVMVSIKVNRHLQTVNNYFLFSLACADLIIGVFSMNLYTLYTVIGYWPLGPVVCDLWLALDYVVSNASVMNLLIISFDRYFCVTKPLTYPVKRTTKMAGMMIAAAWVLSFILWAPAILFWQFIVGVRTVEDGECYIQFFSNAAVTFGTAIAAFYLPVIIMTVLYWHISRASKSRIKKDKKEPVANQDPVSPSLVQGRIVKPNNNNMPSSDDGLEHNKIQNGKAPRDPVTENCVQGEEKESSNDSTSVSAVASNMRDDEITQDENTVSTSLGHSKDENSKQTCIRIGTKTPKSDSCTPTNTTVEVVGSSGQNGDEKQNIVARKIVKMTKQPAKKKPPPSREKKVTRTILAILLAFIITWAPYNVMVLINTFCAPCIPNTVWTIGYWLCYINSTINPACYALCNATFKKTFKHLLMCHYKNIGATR
The following applies: for Efficiency: boosting of the acetylcholine effect at EC20 acetylcholine concentration; for Emax: read-out: Efficiency, boosting of the acetylcholine effect at EC20 acetylcholine concentration.

[1] abbreviates: Receptor activity EC50, allosteric potency at EC20 acetylcholine, M2-GIRK1/4 reporter cells, in some cases mean of two or more determinations.
Where [2] appears, read: Receptor activity EC50, M2-GIRK1/4 activation test, acetylcholine at EC20, allosteric potency, in some cases mean values from two or more determinations.

Read-outs that look alike come from different tables or passages of the source.

Among the data in US20190367516A1 (Bayer Pharma Aktiengesellschaft, priority 2015, published 2019) are Efficiency, EC50 and Emax values, retold here.

What is called EC50 is the concentration needed to bring the measured effect to its halfway point.

Compound `O=C(NC(c1ccccc1Cl)C(F)(F)F)c1cn(-c2c(F)cc(F)cc2F)c2nc(N3CCNC3=O)ccc2c1=O` (racemic) [Example 565, N-[1-(2-Chlorophenyl)-2,2,2-trifluoroethyl]-4-oxo-7-(2-oxoimidazolidin-1-yl)-1-(2,4,6-trifluorophenyl)-1,4-dihydro-1,8-naphthyridine-3-carboxamide] registered an Efficiency (M2-GIRK1/4 reporter cells) of 99.5%.
In the case of `CC(C)(CC(F)(F)F)NC(=O)c1cn(-c2c(F)cc(F)cc2F)c2nc(N3CC(O)C4(CC4)C3)ccc2c1=O` (racemic) [Example 569, 7-[7-Hydroxy-5-azaspiro[2.4]hept-5-yl]-4-oxo-N-(4,4,4-trifluoro-2-methylbutan-2-yl)-1-(2,4,6-trifluorophenyl)-1,4-dihydro-1,8-naphthyridine-3-carboxamide], the EC50 under setting [1] came to 49 nM. Besides, the Emax (M2-GIRK1/4 reporter cells) came to 100%.
In the same order, the values of `CCC(COC(F)(F)F)NC(=O)c1cn(-c2c(F)cc(F)cc2F)c2nc(N3C[C@@H](O)[C@H](O)C3)ccc2c1=O` (mixture of isomers) [Example 576, 7-[(3R,4R)-3,4-Dihydroxypyrrolidin-1-yl]-4-oxo-N-[1-(trifluoromethoxy)butan-2-yl]-1-(2,4,6-trifluorophenyl)-1,4-dihydro-1,8-naphthyridine-3-carboxamide] are 13 nM and 99.5%.
The matching figures for `COC1CN(c2ccc3c(=O)c(C(=O)N[C@@H](C4CC4)C(F)(F)F)cn(-c4c(F)cc(F)cc4F)c3n2)CC1O` (mixture of isomers) [Example 582, N-[(1 S)-1-Cyclopropyl-2,2,2-trifluoroethyl]-7-[trans-3-hydroxy-4-methoxypyrrolidin-1-yl]-4-oxo-1-(2,4,6-trifluorophenyl)-1,4-dihydro-1,8-naphthyridine-3-carboxamide]: 14 nM and 100%.
`O=C(NC(CC(F)(F)F)C(F)(F)F)c1cn(-c2c(F)cc(F)cc2F)c2nc(N3CCNC3=O)ccc2c1=O` (racemic) [Example 586, N-[1,1,1,4,4,4-Hexafluorobutan-2-yl]-4-oxo-7-(2-oxoimidazolidin-1-yl)-1-(2,4,6-trifluorophenyl)-1,4-dihydro-1,8-naphthyridine-3-carboxamide] returned an EC50 under setting [1] of 15 nM. Besides, where the note is “M2-GIRK1/4 reporter cells”, the Emax worked out at 100%.
`O=C(NC(CC(F)(F)F)C(F)(F)F)c1cn(-c2c(F)cc(F)cc2F)c2nc(N3CCNC3=O)ccc2c1=O` (racemic) [Example 587, N-[1,1,1,4,4,4-Hexafluorobutan-2-yl]-4-oxo-7-(2-oxoimidazolidin-1-yl)-1-(2,4,6-trifluorophenyl)-1,4-dihydro-1,8-naphthyridine-3-carboxamide]: the EC50 under setting [1] is 14 nM. Further, for the setting “M2-GIRK1/4 reporter cells”, the Efficiency was determined as 93.5%.
In the case of `O=C(NC(CC(F)(F)F)C(F)(F)F)c1cn(-c2c(F)cc(F)cc2F)c2nc(N3CCNC3=O)ccc2c1=O` (racemic) [Example 588, N-[1,1,1,4,4,4-Hexafluorobutan-2-yl]-4-oxo-7-(2-oxoimidazolidin-1-yl)-1-(2,4,6-trifluorophenyl)-1,4-dihydro-1,8-naphthyridine-3-carboxamide], under setting [1], the response was half-maximal at 9 nM (EC50). Also, for the setting “M2-GIRK1/4 reporter cells”, the Efficiency turned out to be 100.0%.
For the compound `O=C(Nc1c(Cl)cccc1Cl)c1cn(-c2ccc(F)cc2F)c2nc(N3CC4CC4(O)C3)ccc2c1=O` (racemic) [Example 597, N-(2,6-Dichlorophenyl)-1-(2,4-difluorophenyl)-7-[1-hydroxy-3-azabicyclo[3.1.0]hex-3-yl]-4-oxo-1,4-dihydro-1,8-naphthyridine-3-carboxamide], under setting [1], the response was half-maximal at 21 nM (EC50). Further, where the note is “M2-GIRK1/4 reporter cells”, the Emax amounted to 95.5%.
On to `O=C(N[C@@H](C1CC1)C(F)(F)F)c1cn(-c2c(F)cc(F)cc2F)c2nc(N3CC(O)C4(CC4)C3)ccc2c1=O` (mixture of isomers) [Example 600, N-[(1S)-1-Cyclopropyl-2,2,2-trifluoroethyl]-7-[7-hydroxy-5-azaspiro[2.4]hept-5-yl]-4-oxo-1-(2,4,6-trifluorophenyl)-1,4-dihydro-1,8-naphthyridine-3-carboxamide], for which the concentration giving a half-maximal response (EC50) under setting [1] amounted to 28 nM. The Emax (M2-GIRK1/4 reporter cells) amounted to 96.9%.
On to `O=C(NC(CC(F)(F)F)C(F)(F)F)c1cn(-c2c(F)cc(F)cc2F)c2nc(N3C[C@@H](O)CC3=O)ccc2c1=O` (mixture of isomers) [Example 606, N-[1,1,1,4,4,4-Hexafluorobutan-2-yl]-7-[(4S)-4-hydroxy-2-oxopyrrolidin-1-yl]-4-oxo-1-(2,4,6-trifluorophenyl)-1,4-dihydro-1,8-naphthyridine-3-carboxamide], for which the EC50 under setting [1] is 27 nM. The Emax (M2-GIRK1/4 reporter cells) is 98%.
`CCC(COC(F)(F)F)NC(=O)c1cn(-c2c(F)cc(F)cc2F)c2nc(N3CCNC3=O)ccc2c1=O` (racemic) [Example 609, 4-Oxo-7-(2-oxoimidazolidin-1-yl)-N-[1-(trifluoromethoxy)butan-2-yl]-1-(2,4,6-trifluorophenyl)-1,4-dihydro-1,8-naphthyridine-3-carboxamide] registered an EC50 under setting [1] of 28 nM. Further, the Emax (M2-GIRK1/4 reporter cells) came to 99%.
In turn, `CCC(COC(F)(F)F)NC(=O)c1cn(-c2c(F)cc(F)cc2F)c2nc(N3CCNC3=O)ccc2c1=O` (racemic) [Example 610, 4-Oxo-7-(2-oxoimidazolidin-1-yl)-N-[1-(trifluoromethoxy)butan-2-yl]-1-(2,4,6-trifluorophenyl)-1,4-dihydro-1,8-naphthyridine-3-carboxamide] came in with an EC50 under setting [1] of 11 nM. Moreover, the Efficiency (M2-GIRK1/4 reporter cells) is given as 100.0%.
In the same order, the values of `CCC(COC(F)(F)F)NC(=O)c1cn(-c2c(F)cc(F)cc2F)c2nc(N3CCNC3=O)ccc2c1=O` (racemic) [Example 611, 4-Oxo-7-(2-oxoimidazolidin-1-yl)-N-[1-(trifluoromethoxy)butan-2-yl]-1-(2,4,6-trifluorophenyl)-1,4-dihydro-1,8-naphthyridine-3-carboxamide] are 17 nM and 90.0%.
`O=C(N[C@@H](C1CC1)C(F)(F)F)c1cn(-c2c(F)cc(F)cc2F)c2nc(N3CCC(O)C(O)C3)ccc2c1=O` (mixture of isomers) [Example 615, N-[(1 S)-1-Cyclopropyl-2,2,2-trifluoroethyl]-7-[trans-3,4-dihydroxypiperidin-1-yl]-4-oxo-1-(2,4,6-trifluorophenyl)-1,4-dihydro-1,8-naphthyridine-3-carboxamide] yielded an EC50 under setting [1] of 53 nM. Moreover, the Emax (M2-GIRK1/4 reporter cells) turned out to be 99.3%.
The matching figures for `CC[C@H](NC(=O)c1cn(-c2c(F)cc(F)cc2F)c2nc(N3CC(O)C4(CC4)C3)ccc2c1=O)C(F)(F)F` (mixture of isomers) [Example 619, 7-[7-Hydroxy-5-azaspiro[2.4]hept-5-yl]-4-oxo-N-[(2S)-1,1,1-trifluorobutan-2-yl]-1-(2,4,6-trifluorophenyl)-1,4-dihydro-1,8-naphthyridine-3-carboxamide]: 40 nM and 88.6%.
Under setting [1], `CC(NC(=O)c1cn(-c2ccc(F)cc2F)c2nc(N3C[C@@H](O)CC3=O)ccc2c1=O)C(F)(F)C(F)(F)F` (mixture of isomers) [Example 622, 1-(2,4-Difluorophenyl)-7-[(4S)-4-hydroxy-2-oxopyrrolidin-1-yl]-4-oxo-N-[3,3,4,4,4-pentafluorobutan-2-yl]-1,4-dihydro-1,8-naphthyridine-3-carboxamide] came in with an EC50 of 43 nM. For the same compound, the Emax (M2-GIRK1/4 reporter cells) was found to be 93%.
The matching figures for `O=C(NC12CC(C1)C2)c1cn(-c2c(F)cc(F)cc2F)c2nc(N3CC(O)C4(CC4)C3)ccc2c1=O` (racemic) [Example 626, N-(Bicyclo[1.1.1]pent-1-yl)-7-[7-hydroxy-5-azaspiro[2.4]hept-5-yl]-4-oxo-1-(2,4,6-trifluorophenyl)-1,4-dihydro-1,8-naphthyridine-3-carboxamide]: 44 nM and 93.5%.
Compound `O=C(NC12CC(C1)C2)c1cn(-c2c(F)cc(F)cc2F)c2nc(N3CC(O)C4(CC4)C3)ccc2c1=O` (racemic) [Example 628, N-(Bicyclo[1.1.1]pent-1-yl)-7-[7-hydroxy-5-azaspiro[2.4]hept-5-yl]-4-oxo-1-(2,4,6-trifluorophenyl)-1,4-dihydro-1,8-naphthyridine-3-carboxamide] registered an Efficiency (M2-GIRK1/4 reporter cells) of 89.5%.
As for `O=C(N[C@@H](C1CC1)C(F)(F)F)c1cn(-c2c(F)cc(F)cc2F)c2nc(N3CC(CO)OC3=O)ccc2c1=O` (mixture of isomers) [Example 659, N-[(1S)-1-Cyclopropyl-2,2,2-trifluoroethyl]-7-[5-(hydroxymethyl)-2-oxo-1,3-oxazolidin-3-yl]-4-oxo-1-(2,4,6-trifluorophenyl)-1,4-dihydro-1,8-naphthyridine-3-carboxamide], the EC50 under setting [1] came to 81 nM. Where the note is “M2-GIRK1/4 reporter cells”, the Emax amounted to 98%.
Under setting [2], `CC[C@@H](NC(=O)c1cn(-c2ccc(F)cc2F)c2nc(N3CCC(C)(O)C3=O)ccc2c1=O)C(F)(F)F` (single isomer, unassigned) [Example 195] returned a concentration for a half-maximal effect (EC50) of 343 nM.
On to `CC[C@@H](NC(=O)c1cn(-c2ccc(F)cc2F)c2nc(N3CCC(C)(O)C3=O)ccc2c1=O)C(F)(F)F` (single isomer, unassigned) [Example 196], for which the midpoint of the response under setting [2], the EC50, lay at 137 nM. This EC50 lies about 2.5-fold lower than the previous one.
On the same count and under the same terms, the result for `O=C(N[C@H](c1ccccc1Cl)C(F)(F)F)c1cn(-c2ccc(F)cc2F)c2nc(N3CCCC(O)C3=O)ccc2c1=O` (single isomer, unassigned) [Example 209] reads 163 nM.
